The results in this text go back to patent publication US20240368173A1, “TRICYCLIC GPR65 MODULATORS” (PATHIOS THERAPEUTICS LIMITED, priority 2021, published 2024).

human recombinant GPR65, sequence (Q8IYL9 whole entry): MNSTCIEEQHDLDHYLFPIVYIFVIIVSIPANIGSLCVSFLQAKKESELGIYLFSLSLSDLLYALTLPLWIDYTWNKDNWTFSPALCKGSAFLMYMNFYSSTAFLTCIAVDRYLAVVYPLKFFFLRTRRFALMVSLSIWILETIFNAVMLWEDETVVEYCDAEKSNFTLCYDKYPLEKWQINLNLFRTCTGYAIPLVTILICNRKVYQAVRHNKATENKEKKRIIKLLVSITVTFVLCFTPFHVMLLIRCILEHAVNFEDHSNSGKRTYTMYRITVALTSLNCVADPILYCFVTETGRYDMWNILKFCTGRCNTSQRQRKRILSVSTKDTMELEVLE

The first experiment concerns the target human recombinant GPR65 (Homo sapiens, UniProt Q8IYL9). Put plainly: Human GPR65 cAMP HTRF antagonist assay. Format: cell-based.
Conditions: not given
From the text:
In one preferred embodiment, the compound prevents the increase in cytoplasmic cAMP levels expected following GPR65 activation at acidic pH. This prevention of cAMP accumulation in turn prevents downstream signalling through ICER, as described above. The “Human GPR65 cyclic adenosine monophosphate (cAMP) Homogeneous Time Resolved Fluorescence (HTRF) antagonist assay”, or simply “cAMP assay”, as described in the accompanying examples, can be used to measure the potency of GPR65 modulators, which is expressed as the concentration of compound required to reduce the increase in cAMP concentration upon GPR65 activation by 50% (i.e. an IC50).
Human GPR65 Cyclic Adenosine Monophosphate (cAMP) Homogeneous Time Resolved Fluorescence (HTRF) Antagonist Assay Procedure
IC50 data was obtained by the following procedure:
1321N1 human astrocytoma cells stably expressing human recombinant GPR65 (1321N1-hrGPR65 cells, EuroscreenFast) were cultured according to the vendor's instructions.
Compounds were tested for their ability to antagonise GPR65, through measuring the concentration of cytoplasmic cAMP following treatment of the cells at a pH of 7.2 to activate GPR65 signalling and addition of the compound to be tested. The extent to which the expected rise in cAMP concentration upon GPR65 activation was suppressed by the added compound is indicative of its potency. The assay was carried out according to EuroscreenFast assay Methodology as follows.
On the day of the assay, test compounds were added to 384-well, low volume, white microtiter plates by acoustic dispensing. KRH buffer (5 mM KCl, 1.25 mM MgSO4, 124 mM NaCl, 25 mM HEPES, 13.3 mM Glucose, 1.25 mM KH2PO4 and 1.45 mM CaCl2) was adjusted to pH 6.5, pH 7.6 and pH 8.4 by adding NaOH. 1321N1-hGPR65 cells were rapidly thawed and diluted in KRH, pH 7.6 prior to centrifugation at 300×g for 5 min and resuspension in assay buffer (KRH, pH 7.6, supplemented with 1 mM 3-isobutyl-1-methylxanthine (IBMX) and 200 μM ethylenediaminetetraacetic acid (EDTA)). Cells were added to assay plates at a density of 2,000 cells per well in a volume of 5 μl. Assay plates were briefly centrifuged at 100×g and then incubated at room temperature for 30 min. Cells were stimulated by the addition of 5 μL KRH, pH 6.5, to achieve an assay pH of 7.2, while control wells received 5 μl KRH, pH 8.4 to achieve an assay pH of 7.9. Assay plates were briefly centrifuged at 100×g and then incubated at room temperature for 30 min.
Accumulation of cAMP was detected by cAMP HTRF kit (Cisbio). d2-labeled cAMP and cryptate-labeled anti-cAMP antibody in Lysis and Detection Buffer (Cisbio) were added to assay plates, and the plates were incubated at room temperature for 1 h. HTRF measurements were performed using a Pherastar FSX instrument. Acceptor and donor emission signals were measured at 665 nm and 620 nm, respectively, and HTRF ratios were calculated as signal665 nm/signal620 nm×10^4. Data were normalised to high and low control values and fitted with 4-parameter logistic regression to determine hGPR65 IC50 values for the test compounds, which are shown in Table 1.
A general note: TR-FRET usually uses a lanthanide donor and a delayed reading to cut background.
For orientation: IC50 means the concentration at which inhibition is half-maximal. For `O=C(Nc1cc(Cl)c(-c2ccc(OCC(F)(F)F)nc2)cc1F)N1[C@H]2CC[C@@H]1c1ccnc(F)c1C2` [Compound 240, (5R,8S)-N-(5-Chloro-2-fluoro-4-(6-(2,2,2-trifluoroethoxy)pyridin-3-yl)phenyl)-1-fluoro-6,7,8,9-tetrahydro-5H-5,8-epiminocyclohepta[c]pyridine-10-carboxamide], the IC50 was less than 500 nM.

With `O=C(Nc1cc(Cl)c(-c2ccnc(F)c2)cc1F)N1[C@H]2CC[C@@H]1c1ccnc(F)c1C2` [Compound 268, (5R,8S)-N-(5-Chloro-2-fluoro-4-(2-fluoropyridin-4-yl)phenyl)-1-fluoro-6,7,8,9-tetrahydro-5H-5,8-epiminocyclohepta[c]pyridine-10-carboxamide], the IC50 is less than 500 nM.

Consider `O=C(Nc1cc(Cl)c(-c2ccnc(OCC(F)(F)F)c2)cc1F)N1[C@H]2CC[C@@H]1c1n[nH]c(=O)cc1C2` [Compound 310, (6S,9R)-N-(5-Chloro-2-fluoro-4-(2-(2,2,2-trifluoroethoxy)pyridin-4-yl)phenyl)-3-oxo-3,5,6,7,8,9-hexahydro-2H-6,9-epiminocyclohepta[c]pyridazine-10-carboxamide], for which the IC50 is less than 500 nM.

For the compound `O=C(Nc1cc(Cl)c(C(F)(F)F)cc1F)N1[C@@H]2CC[C@H]1c1ccnc(F)c1C2` [Compound 194, (5S,8R)-N-(5-Chloro-2-fluoro-4-(trifluoromethyl)phenyl)-1-fluoro-6,7,8,9-tetrahydro-5H-5,8-epiminocyclohepta[c]pyridine-10-carboxamide], the IC50 is less than 500 nM.

Consider `O=C(Nc1cc(Cl)c(C(F)(F)F)cc1F)N1[C@H]2CC[C@@H]1C(F)(F)c1c2ccnc1F` [Compound 228, (5S,8R)-N-(5-Chloro-2-fluoro-4-(trifluoromethyl)phenyl)-1,9,9-trifluoro-6,7,8,9-tetrahydro-5H-5,8-epiminocyclohepta[c]pyridine-10-carboxamide], for which the IC50 was 500 to 5000 nM.

Turning to `O=C(Nc1cc(Cl)c(-c2ccc(OCC(F)F)nc2)cc1F)N1[C@H]2CC[C@@H]1c1c[nH]c(=O)cc1C2` [Compound 322, (6S,9R)-N-(5-Chloro-4-(6-(2,2-difluoroethoxy)pyridin-3-yl)-2-fluorophenyl)-3-oxo-3,5,6,7,8,9-hexahydro-2H-6,9-epiminocyclohepta[c]pyridine-10-carboxamide], the IC50 is less than 500 nM.

Take `O=C(Nc1cc(Cl)c(-c2ccc(OC(C(F)F)C(F)F)nc2)cc1F)N1[C@H]2CC[C@@H]1c1n[nH]c(=O)cc1C2` [Compound 331, (6S,9R)-N-(5-Chloro-2-fluoro-4-(6-((1,1,3,3-tetrafluoropropan-2-yl)oxy)pyridin-3-yl)phenyl)-3-oxo-3,5,6,7,8,9-hexahydro-2H-6,9-epiminocyclohepta[c]pyridazine-10-carboxamide]: the IC50 was less than 500 nM.

Consider `O=C(Nc1cc(Cl)c(C(F)(F)F)cc1F)N1C2CCC1c1n[nH]c(=O)cc1C2` (racemic) [Compound 1, (±)—N-(5-chloro-2-fluoro-4-(trifluoromethyl)phenyl)-3-oxo-3,5,6,7,8,9-hexahydro-2H-6,9-epiminocyclohepta[c]pyridazine-10-carboxamide], for which the IC50 was less than 500 nM.

Regarding `O=C(Nc1cc(Cl)c(-c2ccc(OC(F)F)nc2)cc1F)N1[C@H]2CC[C@@H]1c1n[nH]c(=O)cc1C2` [Compound 315, (6S,9R)-N-(5-Chloro-4-(6-(difluoromethoxy)pyridin-3-yl)-2-fluorophenyl)-3-oxo-3,5,6,7,8,9-hexahydro-2H-6,9-epiminocyclohepta[c]pyridazine-10-carboxamide], the IC50 is less than 500 nM.

As to `CNc1cnc(F)c2c1[C@H]1CC[C@@H](C2)N1C(=O)Nc1cc(Cl)c(Cl)cc1F` [Compound 159, (5R,8S)—N-(4,5-dichloro-2-fluorophenyl)-1-fluoro-4-(methylamino)-6,7,8,9-tetrahydro-5H-5,8-epiminocyclohepta[c]pyridine-10-carboxamide], the 50% inhibitory concentration (IC50) is less than 500 nM.

For `COc1cnc(F)c2c1[C@H]1CC[C@@H](C2)N1C(=O)Nc1cc(Cl)c(C(F)(F)F)cc1F` [Compound 97, (5R,8S)-N-(5-Chloro-2-fluoro-4-(trifluoromethyl)phenyl)-1-fluoro-4-methoxy-6,7,8,9-tetrahydro-5H-5,8-epiminocyclohepta[c]pyridine-10-carboxamide], the IC50 is less than 500 nM.

Turning to `O=C(Nc1cc(Cl)c(C2CC2)cc1F)N1[C@H]2CC[C@@H]1c1n[nH]c(=O)cc1C2` [Compound 42, (6S,9R)-N-(5-Chloro-4-cyclopropyl-2-fluorophenyl)-3-oxo-3,5,6,7,8,9-hexahydro-2H-6,9-epiminocyclohepta[c]pyridazine-10-carboxamide], the 50% inhibitory concentration (IC50) was less than 500 nM.

Take `O=C(Nc1cc(Cl)c(C(F)(F)F)cc1F)N1[C@@H]2CC[C@H]1c1n[nH]c(=O)cc1C2` [Compound 19, (6R,9S)-N-(5-Chloro-2-fluoro-4-(trifluoromethyl)phenyl)-3-oxo-3,5,6,7,8,9-hexahydro-2H-6,9-epiminocyclohepta[c]pyridazine-10-carboxamide]: the IC50 was less than 500 nM.

Regarding `O=C(Nc1cc(Cl)c(Oc2ccc(F)nc2)cc1F)N1[C@H]2CC[C@@H]1c1n[nH]c(=O)cc1C2` [Compound 225, (6S,9R)—N-(5-Chloro-2-fluoro-4-((6-fluoropyridin-3-yl)oxy)phenyl)-3-oxo-3,5,6,7,8,9-hexahydro-2H-6,9-epiminocyclohepta[c]pyridazine-10-carboxamide], the concentration for half-maximal inhibition (IC50) is less than 500 nM.

Take `O=C(Nc1cc(Cl)c(-c2ccc(OC(F)F)nc2)cc1F)N1[C@H]2CC[C@@H]1c1c[nH]c(=O)cc1C2` [Compound 325, (6S,9R)-N-(5-Chloro-4-(6-(difluoromethoxy)pyridin-3-yl)-2-fluorophenyl)-3-oxo-3,5,6,7,8,9-hexahydro-2H-6,9-epiminocyclohepta[c]pyridine-10-carboxamide]: the IC50 was less than 500 nM.

On to `O=C(Nc1cc(Cl)c(-c2cncc(F)c2)cc1F)N1[C@H]2CC[C@@H]1c1c[nH]c(=O)cc1C2` [Compound 201, (6S,9R)-N-(5-Chloro-2-fluoro-4-(5-fluoropyridin-3-yl)phenyl)-3-oxo-3,5,6,7,8,9-hexahydro-2H-6,9-epiminocyclohepta[c]pyridine-10-carboxamide], for which the IC50 is less than 500 nM.

Turning to `O=C(Nc1cc(F)c(NC(=O)N2[C@H]3CC[C@@H]2c2n[nH]c(=O)cc2C3)cc1Cl)c1ccccc1` [Compound 236, (6S,9R)—N-(4-benzamido-5-chloro-2-fluorophenyl)-3-oxo-3,5,6,7,8,9-hexahydro-2H-6,9-epiminocyclohepta[c]pyridazine-10-carboxamide], the IC50 lay within 500 to 5000 nM.

The same experiment, now with this note: 1321N1-hrGPR65 cells, cAMP HTRF, assay pH 7.2; read-out: hGPR65 IC50 (Activity of selected compounds according to the invention).
`COCCOc1cnc(F)c2c1[C@H]1CC[C@@H](C2)N1C(=O)Nc1cc(Cl)c(Cl)cc1F` [Compound 283, (5R,8S)—N-(4,5-Dichloro-2-fluorophenyl)-1-fluoro-4-(2-methoxyethoxy)-6,7,8,9-tetrahydro-5H-5,8-epiminocyclohepta[c]pyridine-10-carboxamide]: the IC50 was in the range of 500 to 5000 nM.

On to `CS(=O)(=O)NCc1cccc(-c2cc(F)c(NC(=O)N3[C@H]4CC[C@@H]3c3n[nH]c(=O)cc3C4)cc2Cl)c1` [Compound 203, (6S,9R)-N-(2-Chloro-5-fluoro-3′-(methylsulfonamidomethyl)-[1,1′-biphenyl]-4-yl)-3-oxo-3,5,6,7,8,9-hexahydro-2H-6,9-epiminocyclohepta[c]pyridazine-10-carboxamide], for which the IC50 is 500 to 5000 nM.

As for `CN(C)Cc1cccc(-c2cc(F)c(NC(=O)N3[C@H]4CC[C@@H]3c3n[nH]c(=O)cc3C4)cc2Cl)c1` [Compound 133, (6S,9R)-N-(2-Chloro-3′-((dimethylamino)methyl)-5-fluoro-[1,1′-biphenyl]-4-yl)-3-oxo-3,5,6,7,8,9-hexahydro-2H-6,9-epiminocyclohepta[c]pyridazine-10-carboxamide], the IC50 lay within 500 to 5000 nM.
